Measured values taken from patent publication US12290513B2, “Therapeutic methods and compositions for treating movement disorders” (Vima Therapeutics, Inc., priority 2023, dated 2025).

Conditions: human, in vivo
Protocol: Experimental Design: All of the data collected in this example were run in a double-blind, randomized, placebo controlled setting of normal healthy adults. […] Dizziness was measured by the visual analog scale (VAS), a common clinical measure of dizziness.

share of exposure that is R-THP: 85%
SMILES: O[C@@](CCN1CCCCC1)(c1ccccc1)C1CCCCC1 [(R)-THP, (R)-trihexyphenidyl]
